# Measurements published in ChEMBL document CHEMBL1124481, “2-Haloaporphines as potent dopamine agonists” (J Med Chem, 1989).
# How the values were obtained:
# [1] = test system: D(2) dopamine receptor (Sus scrofa); assay: Compound was evaluated for the ability to displace [3H]-spiperone at Dopamine receptor D2 in porcine anterior pituitary gland as low affinity state
# [2] = test system: D(2) dopamine receptor (Sus scrofa); assay: Proportion of high affinity state of Dopamine receptor D2 measured by compound ability to displace [3H]spiperone from porcine anterior pituitary membranes
SMILES,D-2 [1] [%],D-2 [2] [%]
CN1CCc2cc(N)cc3c2[C@H]1Cc1ccc(O)c(O)c1-3,38,62
CN1CCc2cc(Br)cc3c2[C@H]1Cc1ccc(O)c(O)c1-3,49,62
